Experiments:
[1] = test system: Hu apoAI transgenic mice; assay: Evaluation of triglyceride and cholesterol levels in hu apoAI transgenic mice; assay type: in vivo; conditions: 30 mg/kg oral gavage daily for 7 days; serum HDLc FPLC area under the curve, over mice receiving vehicle
Method: Five to six week old male mice, transgenic for human apoAI [C57B1/6-tgn(apoa1) 1rub, Jackson Laboratory, Bar Harbor, Me.] were housed five per cage (10″×20″8″ with aspen chip bedding) with food (Purina 5001) and water available at all times. After an acclimation period of 2 weeks, animals were individually identified by ear notches, weighed, and assigned to groups based on body weight. Beginning the following morning, mice were dosed daily by oral gavage for 7 days using a 20 gauge, 1½″ curved disposable feeding needle (Popper & Sons). Treatments were test compounds (30 mg/kg), a positive control (fenofibrate, 100 mg/kg) or vehicle [1% carboxymethylcellulose (w/v)/0.25% Tween80 (w/v); 0.2 ml/mouse]. Prior to termination on day 7, mice were weighed and dosed. Three hours after dosing, animals were anesthetized by inhalation of isoflurane (2–4%; Abbott Laboratories, Chicago, Ill.) and blood obtained via cardiac puncture (0.7–1.0 ml). Whole blood was transferred to serum separator tubes (Vacutainer SST), chilled on ice, and permitted to clot. Serum was obtained after centrifugation at 4° C. and frozen until analysis for triglycerides, total cholesterol, compound levels, and serum lipoprotein profile by fast protein liquid chromatography (FPLC) coupled to an inline detection system. After sacrifice by cervical dislocation, the liver, heart and epididymal fat pads were excised and weighed.
The animals dosed with vehicle had average triglycerides values of 60–80 mg/dl, which were reduced by the positive control fenofibrate (33–58 mg/dl with a mean reduction of 37%). The animals dosed with vehicle had average total serum cholesterol values of 140–180 mg/dl, which were increased by fenofibrate (190–280 mg/dl, with a mean elevation of 41%). […] increased the amount of HDLc (68–96 v-sec with a mean percent increase of 48%).
Glucose was measured colorimetrically using commercially purchased reagents (Sigma #315-500). According to the manufacturers, the procedures were modified from published work (McGowan, M. W., Artiss, J. D., Strandbergh, D. R. & Zak, B. Clin Chem, 20:470–5 (1974) and Keston, A. Specific colorimetric enzymatic analytical reagents for glucose. Abstract of papers 129th Meeting ACS, 31C (1956).); and depend on the release of a mole of hydrogen peroxide for each mole of analyte, coupled with a color reaction first described by Trinder (Trinder, P. Determination of glucose in blood using glucose oxidase with an alternative oxygen acceptor. Ann Clin Biochem, 6:24 (1969)). The absorbance of the dye produced is linearly related to the analyte in the sample. The assays were further modified in our laboratory for use in a 96 well format. Standards (Sigma #339-11, Sigma #16-11, and Sigma #CC0534 for glucose, triglycerides and total cholesterol, respectively), quality control plasma (Sigma # A2034), and samples (2 or 5 μl/well) were measured in duplicate using 200 μl of reagent. An additional aliquot of sample, pipetted to a third well and diluted in 200 μl water, provided a blank for each specimen. Plates were incubated at room temperature (18, 15, and 10 minutes for glucose, triglycerides and total cholesterol, respectively) on a plate shaker (DPC Micormix 5) and absorbance read at 500 nm (glucose and total cholesterol) or 540 nm (triglycerides) on a plate reader (Wallac Victor 1420). Sample absorbances were compared to a standard curve (100–800, 10–500, and 100–400 mg/dl for glucose, triglycerides and total cholesterol, respectively). Values for the quality control sample were always within the expected range and the coefficient of variation for samples was below 10%. All samples from an experiment were assayed at the same time to minimize inter-assay variability.
Serum lipoproteins were separated and cholesterol quantitated with an in-line detection system. Sample was applied to a Superose® 6 HR 10/30 size exclusion column (Amersham Pharmacia Biotech) and eluted with phosphate buffered saline-EDTA at 0.5 ml/min. […]

[2] = test system: db/db mice; assay: Evaluation of glucose levels in db/db mice; assay type: in vivo; conditions: 30 mg/kg oral gavage daily for 7 days; 100% = glucose not differing from lean values
Method: Five week old male diabetic (db/db) mice [C57BlKs/j-m +/+ Lepr(db), Jackson Laboratory, Bar Harbor, Me.] or lean littermates (DB/?) were housed 6 per cage (10″20″8″ with aspen chip bedding) with food (Purina 5015) and water available at all times. After an acclimation period of 2 weeks, animals were individually identified by ear notches, weighed, and bled via the tail vein for determination of initial glucose levels. Blood was collected (100 μl) from unfasted animals by wrapping each mouse in a towel, cutting the tip of the tail with a scalpel, and milking blood from the tail into a heparinized capillary tube (Fisher) balanced on the edge of the bench. Sample was discharged into a heparinized microtainer with gel separator (VWR) and retained on ice. Plasma was obtained after centrifugation at 4° C. and glucose measured immediately. Remaining plasma was frozen until the completion of the experiment, when glucose and triglycerides were assayed in all samples. […]
Glucose was measured colorimetrically using commercially purchased reagents (Sigma #315-500). […] The absorbance of the dye produced is linearly related to the analyte in the sample. […] Standards (Sigma #339-11, Sigma #16-11, and Sigma #CC0534 for glucose, triglycerides and total cholesterol, respectively), quality control plasma (Sigma # A2034), and samples (2 or 5 μl/well) were measured in duplicate using 200 μl of reagent. […]

For `Cc1oc(-c2cccc(-c3cccs3)c2)nc1CCOc1ccc(CC(C)(Oc2ccccc2)C(=O)O)cc1` (centres unmarked) [Example 5, 2-Methyl-3-(4-{2-[5-methyl-2-(3-thiophen-2-ylphenyl)oxazol-4-yl]ethoxy}phenyl)-2-phenoxypropionic acid], the “% HDLc Increase” value [1] was 94.5% and the “Glucose Normalisation” value [2] was 71%.

Reference: patent publication US7176224B2, “Oxazolyl-aryloxyacetic acid derivatives and their use as PPAR agonists” (Eli Lilly and Company, priority 2000, dated 2007)
